From patent publication US20160324992A1, “IDENTIFICATION AND TREATMENT OF VULNERABLE PLAQUES” (OTTAWA HEART INSTITUTE RESEARCH CORPORATION, priority 2015, published 2016)
“And” between values parts separate entries of the source, which are not always exact repeats. Equal values may be shown once.

Key:
RIP3 = assay: Western blot of RIP3 phosphorylation (band shift) in BMDMs; type: cell-based, mouse
Description: (§1) Western blot analysis. For western blot analysis of RIP3, cells were lysed in 1.25×sample buffer (83 mM Tris pH 6.8, 6.7% SDS, 13.3% Glycerol, 1.3% β-mercaptoethanol, 0.03% bromophenol blue) and boiled at 100° C. for 5 minutes prior to being subjected to SDS-PAGE and western blot analysis as previously described (Robinson et al., 2012). PVDF membranes were blocked with 5% skim milk, followed by incubation with RIP3 (ProSci Inc, 1:500) or HSP90 (Santa Cruz Biotechnology, 1:1000) antibodies. For analysis of MLKL protein, cells were lysed in ice-cold M2 lysis buffer (50 mM NaF, 20 mM Tris, pH 7.0, 0.5% NP40, 250 mM NaCl, 3 mM EDTA, 3 mM EGTA, supplemented with Roche protease and phosphatase inhibitor cocktails) for 30 mins before centrifugation to pellet insoluble component. Samples were mixed 3:1 with 4×sample loading buffer (Bio-Rad) prior to SDS PAGE and western blot analysis. PVDF membranes were blocked in 5% BSA and probed with MLKL (Millipore, 1:500) or GAPDH (Millipore, 1:1000) antibodies. Goat anti-mouse (1:2500) or anti-rabbit (1:5000) or anti-rat (1:2500) IRDye® secondary antibodies (Rockland) were utilized. The protein bands were visualized using Odyssey Infrared Imaging System (LI-COR Biotechnology).
Western blot analysis. […]

[1] = tested on: ApoE−/− mice with established atherosclerosis; assay: Atherosclerosis study: time-release pellets in Western diet fed ApoE−/− mice; type: in vivo, mouse
Description: Atherosclerosis Studies. All animal experiments were performed in accordance with the Animal Care and Use Committee, University of Ottawa, Canada. Eight week old Apo E^−/− mice (total n=17 mice) were fed an adjusted calories diet (21% fat; 0.2% cholesterol, Harlan Teklad) for 4 weeks to induce atherosclerotic progression. Mice were then injected with time-release placebo or Nec-1s tablets (2 mg/kg/day), which were synthesized by Innovative Research of America, USA. Mice were euthanized after 6 weeks of treatment, perfused with saline and aortic roots were embedded in OCT medium and frozen. Aortic roots were sectioned (10 μm) and stained with hematoxylin and eosin for lesion area and necrotic core quantification, and a minimum of 10 sections per animal were measured across the length of the entire aortic root. For en face aortic lesion quantifications, aortas were dissected removing all branching vessels down to the femoral bifurcation and then sliced ventrally and images of aortas were digitally captured using ImagePro™. Lesion areas within the entire length of the aorta were quantified using Image J™ and expressed relative to the total aortic surface area. Immunohistochemistry for vascular smooth muscle cells was performed using a primary antibody for a-smooth muscle actin (monoclonal, Sigma) conjugated to alkaline phosphatase and visualized using SigmaFAST Red (Sigma). Statistical significance between the two groups were analyzed using Students' t-test (p<0.05).
Atherosclerosis Studies. All animal experiments were performed in accordance with the Animal Care and Use Committee, University of Ottawa, Canada. Eight week old apoE−/− mice (total n=17 mice) were fed an adjusted calories diet (21% fat; 0.2% cholesterol, Harlan Teklad) for 4 weeks to induce atherosclerotic progression. Mice were then injected with time-release placebo or stable Necrostatin-1 (Nec-1)15 tablets (2 mg/kg/day), which were synthesized by Innovative Research of America, USA. Mice were euthanized after 6 weeks of treatment, perfused with saline and aortic roots were embedded in OCT medium and frozen. Aortic roots were sectioned (10 μm) and stained with hematoxylin and eosin for lesion area and necrotic core quantification, and a minimum of 10 sections per animal were measured across the length of the entire aortic root. For en face aortic lesion quantifications, aortas were dissected removing all branching vessels down to the femoral bifurcation and then sliced ventrally and images of aortas were digitally captured using ImageProTM. Lesion areas within the entire length of the aorta were quantified using Image JTM and expressed relative to the total aortic surface area. Immunohistochemistry to visualize macrophages and smooth muscle cells was performed using primary antibodies to CD68 (rat monoclonal, Serotec) or phosho-MLKL (rabbit polyclonal, Abcam) with a secondary conjugated to biotin and α-smooth muscle actin (monoclonal, Sigma) conjugated to alkaline phosphatase and visualized using DAB or SigmaFAST Red (Sigma), respectively. Image J was used to quantify positive staining area and statistical significance between the two groups were analyzed using Students' t-test (p<0.05)

MLKL = assay: Western blot of pMLKL in BMDMs; type: cell-based, mouse
Description: as §1, with “1.25× sample” for “1.25×sample”, “analysis.” for “analysis as previously described (Robinson et al., 2012).”, “4× sample” for “4×sample”, “(Bio-rad)” for “(Bio-Rad)”

CN1C(=O)C(Cc2c[nH]c3ccccc23)NC1=S (stereo not shown) [Nec-1, necrostatin-1]
RIP3 phosphorylation induced by oxLDL and DAMPs (in words) (RIP3; BMDMs co-incubated with oxLDL and DAMPs, 8 hours): can be inhibited
oxLDL-induced RIP3 phosphorylation (in words) (RIP3; BMDMs, oxLDL±zVAD.fmk±Nec-1, 8 hours): dampened
body weight (in words) ([1]; 2 mg/kg/day, 6 weeks, data not shown): not affected
CD68+ macrophage area, % of lesion area ([1]; 2 mg/kg/day, 6 weeks, placebo 34.4%±3.2, p=ns): 43.5%±3.7
increase of smooth muscle actin area within the aortic sinus ([1]; 2 mg/kg/day, 6 weeks, vs placebo): 70%
atherosclerotic lesion area versus placebo (in words) ([1]; Western diet 4 weeks then 2 mg/kg/day for 6 weeks): reduced lesion area in the aortic sinus and aorta
reduction of aortic root lesion area compared to controls ([1]; Western diet, 2 mg/kg/day, 6 weeks): 27%
aortic root lesion area ([1]; Western diet, 2 mg/kg/day, 6 weeks, placebo 0.50±0.03 mm^2): 0.37±0.05 mm^2
en face lesion area as a % of total aorta area ([1]; Western diet, 2 mg/kg/day, 6 weeks, placebo 9.9±0.9%): 3.1±0.3%
reduction of en face lesion burden compared to placebo ([1]; Western diet, time-release pellet 2 mg/kg/day, 6 weeks, ascending and descending aorta): 68%
reduction of pMLKL positive area compared to placebo controls ([1]; aortic sinus lesions, 2 mg/kg/day, 6 weeks): 63%
reduction of lesion necrotic core area compared to placebo ([1]; aortic sinus, 2 mg/kg/day, 6 weeks): 62.6% and 62%
oxLDL-induced MLKL phosphorylation (in words) (MLKL): dampened
